Experimental data as given in PubChem BioAssay AID330 (DTP/NCI, 2004).
Values joined by “and” are separate entries in the source; they are usually repeats but may differ in a detail not shown here. Equal entries are not always repeated. Toxic doses and inconclusive results are not listed. Peptide text beside a SMILES is read from it. * marks the point of attachment. Cbz = O=C(OCc1ccccc1)*

System: P388 leukemia ip, CD2F1 mice, survival T/C
Assay: NCI In Vivo Anticancer Drug Screen. Data for tumor model P388 Leukemia (intraperitoneal) in CD2F1 (CDF1) mice
Conditions: endpoint: median survival time, higher = longer survival
Method in brief: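 Mice carrying the transplanted tumor received test compound or vehicle. Survival was recorded in each group, and the value is the treated-group measurement divided by that of the vehicle-treated control group.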

[1] = dose: 12.5 mg/kg/injection, schedule: Q01DX009 (ip), vehicle: saline with Tween-80
[2] = dose: 25.0 mg/kg/injection, schedule: Q01DX009 (ip), vehicle: saline with Tween-80
[3] = dose: 50.0 mg/kg/injection, schedule: Q01DX005 (ip), vehicle: saline with Tween-80
[4] = dose: 100.0 mg/kg/injection, schedule: Q01DX005 (ip), vehicle: saline with Tween-80
[5] = dose: 100.0 mg/kg/injection, schedule: Q01DX009 (ip), vehicle: saline with Tween-80
[6] = dose: 100.0 mg/kg/injection, schedule: Q04DX003 (ip), vehicle: saline

SMILES: [CH3][Sn]([CH3])([Cl])[Cl].c1ccc(-c2nnc(-c3ccccn3)nc2-c2ccccc2)cc1
- T/C (dose: 60.0 mg/kg/injection, schedule: Q01DX005 (ip), vehicle: Klucel (hydroxypropylcellulose) (HPC)): 95 % of control
- T/C (dose: 120.0 mg/kg/injection, schedule: Q01DX005 (ip), vehicle: Klucel (hydroxypropylcellulose) (HPC)): 94 % of control
- T/C (dose: 240.0 mg/kg/injection, schedule: Q01DX005 (ip), vehicle: Klucel (hydroxypropylcellulose) (HPC)): 89 % of control

SMILES: CC1[C@@H]2CC=C3[C@H]4CCC5Cc6nc7c(nc6C[C@@]5(C)C4CC(=O)[C@]32CO[C@]12OC(C)(C)CC2O)CC1CC[C@@H]2C3=C[C@H]4O[C@@]5(O[C@@](C)(CO)C[C@@H]5O)C(C)[C@@]4(O)[C@]3(C)[C@@H](O)CC2[C@]1(C)C7 (some centres undefined)
- T/C (dose: 0.08 mg/kg/injection, schedule: Q01DX009 (ip), vehicle: saline + alcohol): 86 % of control
- T/C (dose: 10.0 micrograms/kg/injection, schedule: Q01DX005 (ip), vehicle: saline + alcohol): 115 % of control and 117 % of control
- T/C (dose: 20.0 micrograms/kg/injection, schedule: Q01DX005 (ip), vehicle: saline + alcohol): 114 % of control and 115 % of control
- T/C (dose: 80.0 micrograms/kg/injection, schedule: Q01DX005 (ip), vehicle: saline + alcohol): 123 % of control

SMILES: CC(=O)Nc1ccc(C(=O)C(C)Br)cc1 (centres undefined)
- T/C (dose: 6.25 mg/kg/injection, schedule: Q01DX009 (ip), vehicle: saline with Tween-80): 106 % of control and 117 % of control and 119 % of control
- T/C [1]: 116 % of control and 117 % of control and 124 % of control
- T/C [2]: 108 % of control and 119 % of control and 124 % of control

SMILES: CC(NC(=O)C(Cc1ccc(O)cc1)NC(=O)C(C)NC(=O)OCc1ccccc1)C(=O)O (stereo not drawn) (Cbz-Ala-Tyr-Ala-OH; configuration not given here)
- T/C [3]: 100 % of control
- T/C [4]: 104 % of control
- T/C (dose: 200.0 mg/kg/injection, schedule: Q01DX005 (ip), vehicle: saline with Tween-80): 99 % of control

SMILES: CCOC(=O)CN1CCCC(C(=O)CC2(O)C3(Cl)C4(Cl)C5(Cl)C(Cl)(Cl)C6(Cl)C4(Cl)C2(Cl)C6(Cl)C53Cl)C1 (centres undefined)
- T/C [1]: 97 % of control
- T/C [2]: 98 % of control
- T/C (dose: 50.0 mg/kg/injection, schedule: Q01DX009 (ip), vehicle: saline with Tween-80): 101 % of control
- T/C [5]: 100 % of control

SMILES: COc1ccc(C(=O)C(=O)c2ccc(OC)c(OC)c2)cc1OC
- T/C [5]: 96 % of control
- T/C (dose: 200.0 mg/kg/injection, schedule: Q01DX009 (ip), vehicle: saline with Tween-80): 96 % of control
- T/C (dose: 400.0 mg/kg/injection, schedule: Q01DX009 (ip), vehicle: saline with Tween-80): 92 % of control

SMILES: COc1ccc2c(C)c(N=C=S)c(=O)oc2c1
- T/C (dose: 50.0 mg/kg/injection, schedule: Q04DX003 (ip), vehicle: suspension in saline): 100 % of control
- T/C (dose: 100.0 mg/kg/injection, schedule: Q04DX003 (ip), vehicle: suspension in saline): 100 % of control
- T/C (dose: 200.0 mg/kg/injection, schedule: Q04DX003 (ip), vehicle: suspension in saline): 106 % of control

SMILES: COc1ccc(OC)c(C(=O)c2ccccc2C(=O)O)c1
- T/C (dose: 25.0 mg/kg/injection, schedule: Q01DX005 (ip), vehicle: Klucel (hydroxypropylcellulose) (HPC)): 102 % of control
- T/C (dose: 50.0 mg/kg/injection, schedule: Q01DX005 (ip), vehicle: Klucel (hydroxypropylcellulose) (HPC)): 100 % of control
- T/C (dose: 100.0 mg/kg/injection, schedule: Q01DX005 (ip), vehicle: Klucel (hydroxypropylcellulose) (HPC)): 96 % of control

SMILES: COc1ccc2c(c1)CC[n+]1c-2ccc2c1CCC2=O
- T/C [3]: 111 % of control

SMILES: N=C(N)c1ccc2oc(/C=C/C=C/C=C/c3cc4cc(C(=N)N)ccc4o3)cc2c1
- T/C [6]: 124 % of control

SMILES: CCCCC(NC(C)(C)C)c1ccccc1 (centres undefined)
- T/C [6]: 97 % of control
- T/C (dose: 200.0 mg/kg/injection, schedule: Q04DX003 (ip), vehicle: saline): 101 % of control
- T/C (dose: 400.0 mg/kg/injection, schedule: Q04DX003 (ip), vehicle: saline): 102 % of control

SMILES: NC(CCCCNc1ccc([N+](=O)[O-])cc1[N+](=O)[O-])C(=O)NC(Cc1ccc(O)cc1)C(=O)O (centres undefined)
- T/C (dose: 50.0 mg/kg/injection, schedule: Q01DX005 (ip), vehicle: saline + Tween-80 + alcohol): 101 % of control
- T/C (dose: 100.0 mg/kg/injection, schedule: Q01DX005 (ip), vehicle: saline + Tween-80 + alcohol): 101 % of control
- T/C (dose: 200.0 mg/kg/injection, schedule: Q01DX005 (ip), vehicle: saline + Tween-80 + alcohol): 103 % of control

SMILES: CC(=O)Nc1ccc(N=NNc2ccccc2)cc1
- T/C (dose: 3.12 mg/kg/injection, schedule: Q01DX001 (ip), vehicle: Klucel (hydroxypropylcellulose) (HPC)): 100 % of control
- T/C (dose: 6.25 mg/kg/injection, schedule: Q01DX001 (ip), vehicle: Klucel (hydroxypropylcellulose) (HPC)): 93 % of control
- T/C (dose: 12.5 mg/kg/injection, schedule: Q01DX001 (ip), vehicle: Klucel (hydroxypropylcellulose) (HPC)): 99 % of control and 97 % of control

SMILES: C(=N\SC(c1ccccc1)(c1ccccc1)c1ccccc1)/c1ccccc1
- T/C [3]: 100 % of control
- T/C [4]: 103 % of control
